pIC50: −log10 of the molar value.
What was measured:
Test in all cases: cells
SK-PN-DW = assay type: functional, cell-based, Homo sapiens; details: Homo sapiens, SK-PN-DW;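 note: growth inhibition measured with a viability assay on these cells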
Description: SANGER: Inhibition of human SK-PN-DW cell growth in a cell viability assay.

L-363 = assay type: functional, cell-based, Homo sapiens; details: Homo sapiens, L-363
Description: SANGER: Inhibition of human L-363 cell growth in a cell viability assay.

LAMA-84 = assay type: functional, cell-based, Homo sapiens; details: Homo sapiens, LAMA-84;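 note: growth inhibition of LAMA-84 cells, read out with a cell viability assay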
Description: SANGER: Inhibition of human LAMA-84 cell growth in a cell viability assay.

TK-10 = assay type: functional, cell-based, Homo sapiens; details: Homo sapiens, TK-10;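 note: growth inhibition of TK-10 cells, read out in a cell viability assay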
Description: SANGER: Inhibition of human TK10 cell growth in a cell viability assay.

ES4 = assay type: functional, cell-based, Homo sapiens; details: Homo sapiens, ES4;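 note: growth inhibition of human ES4 cells, read out by a cell viability assay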
Description: SANGER: Inhibition of human ES4 cell growth in a cell viability assay.

LB771-HNC = assay type: functional, cell-based; details: Homo sapiens;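 note: growth inhibition of LB771-HNC human cells, read out with a cell viability assay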
Description: SANGER: Inhibition of human LB771-HNC cell growth in a cell viability assay.

OCI-AML2 = assay type: functional, cell-based, Homo sapiens; details: Homo sapiens, OCI-AML2;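 note: growth inhibition of OCI-AML2 cells, read out with a cell viability assay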
Description: SANGER: Inhibition of human OCI-AML2 cell growth in a cell viability assay.

HCC1187 = assay type: functional, cell-based, Homo sapiens; details: Homo sapiens, HCC1187;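 note: growth inhibition of HCC1187 cells, read out with a cell viability assay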
Description: SANGER: Inhibition of human HCC1187 cell growth in a cell viability assay.

CAS-1 = assay type: functional, cell-based, Homo sapiens; details: Homo sapiens, CAS-1;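 note: growth inhibition of CAS-1 cells, measured with a cell viability assay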
Description: SANGER: Inhibition of human CAS-1 cell growth in a cell viability assay.

SCC-15 = assay type: functional, cell-based, Homo sapiens; details: Homo sapiens, SCC-15;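 note: growth inhibition of SCC-15 cells, read out with a cell viability assay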
Description: SANGER: Inhibition of human SCC-15 cell growth in a cell viability assay.

MZ1-PC = assay type: functional, cell-based, Homo sapiens; details: Homo sapiens, MZ1-PC;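 note: cell viability assay measuring growth inhibition of human MZ1-PC cells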
Description: SANGER: Inhibition of human MZ1-PC cell growth in a cell viability assay.

NCI-H2126 = assay type: functional, cell-based, Homo sapiens; details: Homo sapiens, NCI-H2126;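 note: growth inhibition of the cancer cell line, determined with a cell viability readout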
Description: SANGER: Inhibition of human NCI-H2126 cell growth in a cell viability assay.

SK-MEL-2 = assay type: functional, cell-based, Homo sapiens; details: Homo sapiens, SK-MEL-2;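 note: growth inhibition of human SK-MEL-2 cells measured with a cell viability assay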
Description: SANGER: Inhibition of human SK-MEL-2 cell growth in a cell viability assay.

RH-1 = assay type: functional, cell-based, Homo sapiens; details: Homo sapiens, RH-1;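 note: growth inhibition of human RH-1 cells, read out with a cell viability assay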
Description: SANGER: Inhibition of human RH-1 cell growth in a cell viability assay.

LU-139 = assay type: functional, cell-based, Homo sapiens; details: Homo sapiens, LU-139
Description: SANGER: Inhibition of human LU-139 cell growth in a cell viability assay.

697 = assay type: functional, cell-based, Homo sapiens; details: Homo sapiens
Description: SANGER: Inhibition of human 697 cell growth in a cell viability assay.

RPMI-8866 = assay type: functional, cell-based, Homo sapiens; details: Homo sapiens, RPMI-8866
Description: SANGER: Inhibition of human RPMI-8866 cell growth in a cell viability assay.

A3-KAW = assay type: functional, cell-based, Homo sapiens; details: Homo sapiens, A3-KAW;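 note: growth inhibition of human A3-KAW cells, read out with a cell viability assay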
Description: SANGER: Inhibition of human A3-KAW cell growth in a cell viability assay.

LS-123 = assay type: functional, cell-based, Homo sapiens; details: Homo sapiens, LS-123
Description: SANGER: Inhibition of human LS-123 cell growth in a cell viability assay.

no-10 = assay type: functional, cell-based, Homo sapiens; details: Homo sapiens;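 note: growth inhibition of no-10 cells, read out with a cell viability assay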
Description: SANGER: Inhibition of human no-10 cell growth in a cell viability assay.

DJM-1 = assay type: functional, cell-based, Homo sapiens; details: Homo sapiens, DJM-1;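 note: growth inhibition of human DJM-1 cells, read out by a cell viability assay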
Description: SANGER: Inhibition of human DJM-1 cell growth in a cell viability assay.

DEL = assay type: functional, cell-based, Homo sapiens; details: Homo sapiens, DEL;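 note: growth inhibition of the human DEL cell line, read out with a cell viability assay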
Description: SANGER: Inhibition of human DEL cell growth in a cell viability assay.

EOL1 = assay type: functional, cell-based, Homo sapiens; details: Homo sapiens, EOL1;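 note: growth inhibition of EoL-1 cells, read out by a cell viability assay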
Description: SANGER: Inhibition of human EoL-1-cell cell growth in a cell viability assay.

A704 = assay type: functional, cell-based; details: Homo sapiens;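 note: growth inhibition of human A704 cells, read out with a cell viability assay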
Description: SANGER: Inhibition of human A704 cell growth in a cell viability assay.

MOLT-4 = assay type: functional, cell-based, Homo sapiens; details: Homo sapiens, MOLT-4;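 note: growth inhibition of MOLT-4 cells, determined with a cell viability readout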
Description: SANGER: Inhibition of human MOLT-4 cell growth in a cell viability assay.

J-RT3-T3-5 = assay type: functional, cell-based, Homo sapiens; details: Homo sapiens, J-RT3-T3-5;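 note: cell viability assay measuring growth inhibition of human J-RT3-T3-5 cells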
Description: SANGER: Inhibition of human J-RT3-T3-5 cell growth in a cell viability assay.

GAK = assay type: functional, cell-based, Homo sapiens; details: Homo sapiens, GAK;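 note: cell growth inhibition read out by a cell viability assay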
Description: SANGER: Inhibition of human GAK cell growth in a cell viability assay.

SF-126 = assay type: functional, cell-based, Homo sapiens; details: Homo sapiens, SF-126;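 note: growth inhibition of human SF126 cells, read out with a cell viability assay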
Description: SANGER: Inhibition of human SF126 cell growth in a cell viability assay.

LB2518-MEL = assay type: functional, cell-based; details: Homo sapiens;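 note: growth inhibition of human LB2518-MEL cells, measured with a cell viability assay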
Description: SANGER: Inhibition of human LB2518-MEL cell growth in a cell viability assay.

BT-474 = assay type: functional, cell-based, Homo sapiens; details: Homo sapiens, BT-474
Description: SANGER: Inhibition of human BT-474 cell growth in a cell viability assay.

NCI-H1299 = assay type: functional, cell-based; details: Homo sapiens;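 note: growth inhibition of human NCI-H1299 cells, read out by a cell viability assay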
Description: SANGER: Inhibition of human NCI-H1299 cell growth in a cell viability assay.

K562 = assay type: functional, cell-based, Homo sapiens; details: Homo sapiens, K562
Description: SANGER: Inhibition of human K-562 cell growth in a cell viability assay.

TE-1 = assay type: functional, cell-based, Homo sapiens; details: Homo sapiens, TE-1;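 note: growth inhibition of the human TE-1 cell line, read out with a cell viability assay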
Description: SANGER: Inhibition of human TE-1 cell growth in a cell viability assay.

OMC-1 = assay type: functional, cell-based, Homo sapiens; details: Homo sapiens, OMC-1;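 note: growth inhibition of the OMC-1 cell line, measured by a cell viability assay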
Description: SANGER: Inhibition of human OMC-1 cell growth in a cell viability assay.

HT-144 = assay type: functional, cell-based, Homo sapiens; details: Homo sapiens, HT-144
Description: SANGER: Inhibition of human HT-144 cell growth in a cell viability assay.

GI-1 = assay type: functional, cell-based, Homo sapiens; details: Homo sapiens, GI-1;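 note: growth inhibition of human GI-1 cells, measured with a cell viability readout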
Description: SANGER: Inhibition of human GI-1 cell growth in a cell viability assay.

IST-MEL1 = assay type: functional, cell-based, Homo sapiens; details: Homo sapiens, IST-MEL1;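 note: growth inhibition of the cell line, read out with a cell viability assay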
Description: SANGER: Inhibition of human IST-MEL1 cell growth in a cell viability assay.

SH-4 = assay type: functional, cell-based; details: Homo sapiens;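 note: growth inhibition of SH-4 cells, read out with a cell viability assay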
Description: SANGER: Inhibition of human SH-4 cell growth in a cell viability assay.

HT = assay type: functional, cell-based, Homo sapiens; details: Homo sapiens, HT
Description: SANGER: Inhibition of human HT cell growth in a cell viability assay.

OCUB-M = assay type: functional, cell-based; details: Homo sapiens;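 note: growth inhibition of the cancer cell line, read out through a cell viability assay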
Description: SANGER: Inhibition of human OCUB-M cell growth in a cell viability assay.

RKO = assay type: functional, cell-based, Homo sapiens; details: Homo sapiens, RKO;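 note: growth inhibition of human RKO cells, read out with a cell viability assay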
Description: SANGER: Inhibition of human RKO cell growth in a cell viability assay.

SHP77 = assay type: functional, cell-based, Homo sapiens, SHP-77; details: Homo sapiens, SHP77;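 note: growth inhibition of human SHP-77 cells measured by a cell viability assay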
Description: SANGER: Inhibition of human SHP-77 cell growth in a cell viability assay.

LB2241-RCC = assay type: functional, cell-based, Homo sapiens; details: Homo sapiens, LB2241-RCC;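 note: cell viability assay measuring how strongly the cultured human renal carcinoma line is prevented from growing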
Description: SANGER: Inhibition of human LB2241-RCC cell growth in a cell viability assay.

ES1 = assay type: functional, cell-based, Homo sapiens; details: Homo sapiens, ES1;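 note: growth inhibition of ES1 cells, read out with a cell viability assay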
Description: SANGER: Inhibition of human ES1 cell growth in a cell viability assay.

SW684 = assay type: functional, cell-based, Homo sapiens; details: Homo sapiens, SW684; read-out: IC50;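 note: growth inhibition of human SW684 cells, measured by a cell viability assay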
Description: SANGER: Inhibition of human SW684 cell growth in a cell viability assay.

U-266 = assay type: functional, cell-based, Homo sapiens; details: Homo sapiens, U-266
Description: SANGER: Inhibition of human U-266 cell growth in a cell viability assay.

COLO-684 = assay type: functional, cell-based, Homo sapiens; details: Homo sapiens, COLO-684
Description: SANGER: Inhibition of human COLO-684 cell growth in a cell viability assay.

SW 962 = assay type: functional, cell-based, Homo sapiens; details: Homo sapiens, SW 962;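 note: growth inhibition of human SW962 cells, read out by a cell viability assay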
Description: SANGER: Inhibition of human SW962 cell growth in a cell viability assay.

With `CN(C)CCOc1ccc(-c2nc(-c3ccncc3)c(-c3ccc4c(c3)CC/C4=N\O)[nH]2)cc1` [SB590885] the pIC50 (SK-PN-DW) was under 5.30, the pIC50 (L-363) was 5.33 and the pIC50 (LAMA-84) was under 5.30. For the same molecule, the pIC50 (TK-10) was under 5.30, the pIC50 (ES4) was under 5.30 and the pIC50 (LB771-HNC) was under 5.30. The pIC50 (OCI-AML2) was under 5.30, the pIC50 (HCC1187) was under 5.30 and the pIC50 (CAS-1) was under 5.30. For the same molecule, the pIC50 (SCC-15) was under 5.30, the pIC50 (MZ1-PC) was under 5.30 and the pIC50 (NCI-H2126) was under 5.30. The pIC50 (SK-MEL-2) was 6.13, the pIC50 (RH-1) was under 5.30 and the pIC50 (LU-139) was under 5.30. For the same molecule, the pIC50 697 was under 5.30, the pIC50 (RPMI-8866) was under 5.30 and the pIC50 (A3-KAW) was under 5.30. For the same molecule, the pIC50 (LS-123) was under 5.30, the pIC50 (no-10) was under 5.30 and the pIC50 (DJM-1) was under 5.30. It also gave a pIC50 (DEL) of under 5.30, a pIC50 (EOL1) of 6.74 and a pIC50 (A704) of under 5.30. The pIC50 (MOLT-4) was under 5.30, the pIC50 (J-RT3-T3-5) was under 5.30 and the pIC50 (GAK) was under 5.30. It also gave a pIC50 (SF-126) of under 5.30, a pIC50 (LB2518-MEL) of under 5.30 and a pIC50 (BT-474) of under 5.30. For the same molecule, the pIC50 (NCI-H1299) was under 5.30, the pIC50 (K562) was under 5.30 and the pIC50 (TE-1) was under 5.30. It also gave a pIC50 (OMC-1) of under 5.30, a pIC50 (HT-144) of 6.36 and a pIC50 (GI-1) of under 5.30. The pIC50 (IST-MEL1) was under 5.30, the pIC50 (SH-4) was 6.09 and the pIC50 (HT) was under 5.30. It also gave a pIC50 (OCUB-M) of under 5.30, a pIC50 (RKO) of under 5.30 and a pIC50 (SHP77) of under 5.30. For the same molecule, the pIC50 (LB2241-RCC) was under 5.30, the pIC50 (ES1) was under 5.30 and the pIC50 (SW684) was under 5.30. It also gave a pIC50 (U-266) of under 5.30, a pIC50 (COLO-684) of under 5.30 and a pIC50 (SW 962) of under 5.30.

In the case of `CS(=O)(=O)N1CCN(Cc2cc3nc(-c4cccc5[nH]ncc45)nc(N4CCOCC4)c3s2)CC1` [PICTILISIB], the pIC50 (SK-PN-DW) was under 5.40, the pIC50 (L-363) was 6.10 and the pIC50 (LAMA-84) was 5.69. For the same molecule, the pIC50 (TK-10) was 5.78, the pIC50 (ES4) was 6.19 and the pIC50 (LB771-HNC) was under 5.40. The pIC50 (OCI-AML2) was under 5.40, the pIC50 (HCC1187) was under 5.40 and the pIC50 (CAS-1) was under 5.40. For the same molecule, the pIC50 (SCC-15) was under 5.40, the pIC50 (MZ1-PC) was under 5.40 and the pIC50 (NCI-H2126) was under 5.40. For the same molecule, the pIC50 (SK-MEL-2) was under 5.40, the pIC50 (RH-1) was under 5.40 and the pIC50 697 was 6.08. For the same molecule, the pIC50 (RPMI-8866) was under 5.40, the pIC50 (A3-KAW) was under 5.40 and the pIC50 (LS-123) was under 5.40. For the same molecule, the pIC50 (no-10) was under 5.40, the pIC50 (DJM-1) was under 5.40 and the pIC50 (DEL) was under 5.40. The pIC50 (A704) was 5.82, the pIC50 (MOLT-4) was 6.21 and the pIC50 (J-RT3-T3-5) was under 5.40. The pIC50 (GAK) was under 5.40, the pIC50 (SF-126) was 5.64 and the pIC50 (LB2518-MEL) was under 5.40. For the same molecule, the pIC50 (BT-474) was under 5.40, the pIC50 (NCI-H1299) was under 5.40 and the pIC50 (K562) was under 5.40. For the same molecule, the pIC50 (TE-1) was under 5.40, the pIC50 (OMC-1) was 6.12 and the pIC50 (HT-144) was under 5.40. It also gave a pIC50 (GI-1) of under 5.40, a pIC50 (IST-MEL1) of under 5.40 and a pIC50 (SH-4) of under 5.40. For the same molecule, the pIC50 (HT) was 5.95, the pIC50 (OCUB-M) was under 5.40 and the pIC50 (RKO) was under 5.40. For the same molecule, the pIC50 (SHP77) was under 5.40, the pIC50 (LB2241-RCC) was 6.52 and the pIC50 (ES1) was 5.65. The pIC50 (SW684) was under 5.40, the pIC50 (U-266) was under 5.40 and the pIC50 (COLO-684) was 6.28. The pIC50 (SW 962) was 5.43.

For `NC1(c2ccc(-c3nc4ccn5c(=O)[nH]nc5c4cc3-c3ccccc3)cc2)CCC1` [MK-2206], the pIC50 (SK-PN-DW) was under 5.40, the pIC50 (L-363) was 6.08 and the pIC50 (LAMA-84) was under 5.40. For the same molecule, the pIC50 (TK-10) was under 5.40, the pIC50 (ES4) was under 5.40 and the pIC50 (LB771-HNC) was under 5.40. It also gave a pIC50 (OCI-AML2) of under 5.40, a pIC50 (HCC1187) of under 5.40 and a pIC50 (CAS-1) of under 5.40. It also gave a pIC50 (SCC-15) of under 5.40, a pIC50 (MZ1-PC) of under 5.40 and a pIC50 (SK-MEL-2) of under 5.40. It also gave a pIC50 (RH-1) of under 5.40, a pIC50 (LU-139) of under 5.40 and a pIC50 697 of 5.86. The pIC50 (RPMI-8866) was under 5.40, the pIC50 (A3-KAW) was under 5.40 and the pIC50 (LS-123) was under 5.40. For the same molecule, the pIC50 (no-10) was under 5.40, the pIC50 (DJM-1) was under 5.40 and the pIC50 (DEL) was under 5.40. It also gave a pIC50 (EOL1) of 5.51, a pIC50 (A704) of under 5.40 and a pIC50 (MOLT-4) of 6.09. It also gave a pIC50 (J-RT3-T3-5) of 6.13, a pIC50 (GAK) of under 5.40 and a pIC50 (SF-126) of under 5.40. For the same molecule, the pIC50 (LB2518-MEL) was under 5.40, the pIC50 (BT-474) was under 5.40 and the pIC50 (NCI-H1299) was under 5.40. It also gave a pIC50 (K562) of under 5.40, a pIC50 (TE-1) of under 5.40 and a pIC50 (OMC-1) of 5.76. It also gave a pIC50 (HT-144) of under 5.40, a pIC50 (GI-1) of under 5.40 and a pIC50 (IST-MEL1) of under 5.40. It also gave a pIC50 (SH-4) of under 5.40, a pIC50 (HT) of 6.20 and a pIC50 (OCUB-M) of 6.15. The pIC50 (RKO) was 5.73, the pIC50 (SHP77) was under 5.40 and the pIC50 (LB2241-RCC) was 6.00. It also gave a pIC50 (ES1) of 5.91, a pIC50 (SW684) of under 5.40 and a pIC50 (U-266) of under 5.40. The pIC50 (COLO-684) was 5.91 and the pIC50 (SW 962) was under 5.40.
